{"source": "patent US10568328B2", "about": "“Methods and compositions for weed control” (Monsanto Technology LLC, priority 2013, dated 2020)", "system": "Amaranthus palmeri plants (R22 glyphosate resistant biotype)", "assay": "OEP80 trigger dsRNA polynucleotides followed by 2X WMAX, injury rating (FIG. 1)", "assay_type": "in vivo", "conditions": "8 nmol/plant, 0.5-1.0 percent Silwet L-77 and buffer, 2X WMAX one day later; rated 14 days after WMAX; baseline 40 percent", "method": "FIG. 1. Treatment of Amaranthus palmeri with dsRNA trigger polynucleotides targeting OEP80.\nThe following procedure is used for all assays described in this example. Approximately four-week old Amaranthus palmeri plants (glyphosate-resistant Palmer amaranth, “R-22”) are used in this assay. Plants are treated with 0.5-1.0 percent Silwet L-77 solution freshly made with ddH2O. Two fully expanded leaves per plant (one cotyledon, one true leaf) are treated with the polynucleotide/Silwet L-77 solution. Final concentration for each dsRNA polynucleotide was 25 microM) unless otherwise stated. Twenty microliters of the solution are applied to the top surface of each of the two pre-treated leaves to provide a total of 40 microliters (1-4 nmol polynucleotide) for each plant.\nSpray solutions are prepared the same day as spraying. Single oligonucleotide molecules are applied at rates between 0.04 and 0.18 mg/ml in 20 mM potassium phosphate buffer (pH 6.8) are added to spray solutions 15 to 50 minutes before spraying. One-to-two-ml spray solutions were applied using a custom low-dead-volume sprayer (“milli applicator”) at 8-30 gpa (gallons per acre) to one-to-four inch tall plants. Treated plants are place in a greenhouse set for either a 26.7/21.1° C. or 29.4/21.1° C. 14/10 hour temperature and supplemental light schedule. The amount of response relative to unsprayed treatments is collected at various time intervals up to 21 days after treatment.\nA common spray nozzle used for all applications made with the track sprayer is the Turbo Teejet air induction nozzle (015) nozzle with air pressure set at a minimum of 20 psi (pounds per square inch or […]). This style nozzle is currently being utilized to lessen shear forces that can damage or otherwise change large macromolecules that can seen with other nozzle styles. The height of the spray nozzle is to be 16-18 inches above top of plant material. Treatments are to be made when plants reach the desired size, height or leaf stage.\nApplication rates are chosen so as to achieve percent control ratings in the range of 50 percent at the lowest rate to 90 percent control at the highest rate. The rates in this control range provide the best possible efficacy comparisons among formulations, allowing separation of relative performance of test samples. The rate of herbicide used in these studies is typically at the manufacturer's recommended use rate. On occasion lower or higher rates may be necessary depending on test objectives. The rate structure used for a given test will be dependent on the environmental conditions at the time of spray application (time of year), the plant species being treated (highly susceptible or tough to kill) and age (or size) of plants to be treated.\nAmaranthus palmeri plants (R22 glyphosate resistant biotype) were treated following the protocol described in Example 3. Trigger dsRNA polynucleotides shown in Table 5 (SEQ ID NO: 1535-1573, plus strand sequence illustrated) are targeting the A. palmeri OEP80 gene coding region (SEQ ID NO: 365). The polynucleotides were topically applied at 8 nmol/plant in a composition comprising 0.5-1.0 percent Silwet L-77 and buffer followed one day later by treatment with 2× WeatherMAX (WMAX). Injury rating of the treated plants was conducted 14 days after the WMAX treatment. The control treatments were buffer alone and 2 rates (4 nmol and 8 nmol) of a trigger polynucleotide (oligo 5.3) targeting the A. palmeri EPSPS coding gene sequence. The average baseline level of injury effect of buffer plus WMAX was set at 40 percent for this experiment. […] Additionally, 4 regions of the target gene sequence were identified in which the polynucleotides in those regions were particularly effective, these regions are between nucleotide positions 369-701, 1016-1168, 1364-1622 and 1683-1792 of SEQ ID NO: 365.", "data": [{"molecule": "T25465: A. palmeri OEP80 trigger dsRNA polynucleotide, SEQ ID NO: 1555 (GCTATCAGGTTTAATTGGAAGCTTTGCATATTCTCACAGGAATCTGTTTGGAAAAAATC; double-stranded RNA trigger, chemistry not given here, further chemistry not given here; listed as Amaranthus palmeri) [Oligo T25465]", "values": [{"measurement": "Injury rating: enhancement of the effect of WMAX (FIG. 1)", "result": "able to enhance the effect of WMAX"}]}, {"molecule": "T25452: A. palmeri OEP80 trigger dsRNA polynucleotide, SEQ ID NO: 1542 (GGAGGCATTAATGGCATTGAAAGCTTGCCGGGCGAATTCAGCTTTGACTGTGC; double-stranded RNA trigger, chemistry not given here, further chemistry not given here; listed as Amaranthus palmeri) [Oligo T25452]", "values": [{"measurement": "Injury rating: enhancement of the effect of WMAX (FIG. 1)", "result": "able to enhance the effect of WMAX"}]}, {"molecule": "T25473: A. palmeri OEP80 trigger dsRNA polynucleotide, SEQ ID NO: 1563 (GCTGCTTGCCAAAGGCGAGTGTGCCTACACGGGTGACTTAGGATCCTCAATGTTAGTC; double-stranded RNA trigger, chemistry not given here, further chemistry not given here; listed as Amaranthus palmeri) [Oligo T25473]", "values": [{"measurement": "Injury rating: enhancement of the effect of WMAX (FIG. 1)", "result": "able to enhance the effect of WMAX"}]}, {"molecule": "T25474: A. palmeri OEP80 trigger dsRNA polynucleotide, SEQ ID NO: 1564 (GTCTTAAGCATGGAACAAGGTCTTCCTATCTATCCTGAGTGGCTGTGTTTTAATC; double-stranded RNA trigger, chemistry not given here, further chemistry not given here; listed as Amaranthus palmeri) [Oligo T25474]", "values": [{"measurement": "Injury rating: enhancement of the effect of WMAX (FIG. 1)", "result": "able to enhance the effect of WMAX"}]}, {"molecule": "T29213: A. palmeri OEP80 trigger dsRNA polynucleotide, SEQ ID NO: 1573 (GGATATGAAGAAGGTGCCGTTGGC; double-stranded RNA trigger, chemistry not given here, further chemistry not given here; listed as Amaranthus palmeri) [Oligo T29213]", "values": [{"measurement": "Injury rating: enhancement of the effect of WMAX (FIG. 1)", "result": "able to enhance the effect of WMAX"}]}, {"molecule": "T25475: A. palmeri OEP80 trigger dsRNA polynucleotide, SEQ ID NO: 1565 (GTTTTAATCGAGTCAACGCTCGTGCTAGGTCAGGGGTGGACATTGGTCCAGC; double-stranded RNA trigger, chemistry not given here, further chemistry not given here; listed as Amaranthus palmeri) [Oligo T25475]", "values": [{"measurement": "Injury rating: enhancement of the effect of WMAX (FIG. 1)", "result": "able to enhance the effect of WMAX"}]}, {"molecule": "T25477: A. palmeri OEP80 trigger dsRNA polynucleotide, SEQ ID NO: 1567 (GTTTGCGATCGGTGGTACAAATAGTGTGAGAGGATATGAAGAAGGTGCCGTTGGC; double-stranded RNA trigger, chemistry not given here, further chemistry not given here; listed as Amaranthus palmeri) [Oligo T25477]", "values": [{"measurement": "Injury rating: enhancement of the effect of WMAX (FIG. 1)", "result": "able to enhance the effect of WMAX"}]}, {"molecule": "T25456: A. palmeri OEP80 trigger dsRNA polynucleotide, SEQ ID NO: 1546 (GTGATGGATATGGGAAAGTGGTCAATATCAGGCGTTTGGATGAAGTGATTGATTC; double-stranded RNA trigger, chemistry not given here, further chemistry not given here; listed as Amaranthus palmeri) [Oligo T25456]", "values": [{"measurement": "Injury rating: enhancement of the effect of WMAX (FIG. 1)", "result": "able to enhance the effect of WMAX"}]}, {"molecule": "T25455: A. palmeri OEP80 trigger dsRNA polynucleotide, SEQ ID NO: 1545 (GCGAAGGAGCTAATGTTCTCCCTTCCAAGTTTGTAGAGGATTCATTTC; double-stranded RNA trigger, chemistry not given here, further chemistry not given here; listed as Amaranthus palmeri) [Oligo T25455]", "values": [{"measurement": "Injury rating: enhancement of the effect of WMAX (FIG. 1)", "result": "able to enhance the effect of WMAX"}]}, {"molecule": "T25478: A. palmeri OEP80 trigger dsRNA polynucleotide, SEQ ID NO: 1568 (GCTCAGGCCTTTCATACGTAGTGGGCTGTGGAGAAGTTTCCTTCCCTCTGTATGGTC; double-stranded RNA trigger, chemistry not given here, further chemistry not given here; listed as Amaranthus palmeri) [Oligo T25478]", "values": [{"measurement": "Injury rating: enhancement of the effect of WMAX (FIG. 1)", "result": "able to enhance the effect of WMAX"}]}, {"molecule": "T25464: A. palmeri OEP80 trigger dsRNA polynucleotide, SEQ ID NO: 1554 (GTTTCTCGGCTGGTGGTGGTATTTCGAGCGGGATAACGAGCGGACCGC; double-stranded RNA trigger, chemistry not given here, further chemistry not given here; listed as Amaranthus palmeri) [Oligo T25464]", "values": [{"measurement": "Injury rating: enhancement of the effect of WMAX (FIG. 1)", "result": "able to enhance the effect of WMAX"}]}, {"molecule": "T25466: A. palmeri OEP80 trigger dsRNA polynucleotide, SEQ ID NO: 1556 (GAAAAAATCAAAAAGTAAATGTCTCTCTTGAAAGAGGCCAAATCGACTCTATCTTCC; double-stranded RNA trigger, chemistry not given here, further chemistry not given here; listed as Amaranthus palmeri) [Oligo T25466]", "values": [{"measurement": "Injury rating: enhancement of the effect of WMAX (FIG. 1)", "result": "able to enhance the effect of WMAX"}]}, {"molecule": "T25471: A. palmeri OEP80 trigger dsRNA polynucleotide, SEQ ID NO: 1561 (GACTTACGTTTCAGCATGCTGGTGTCCGTGATGAAAAAGGGAACCCCGTC; double-stranded RNA trigger, chemistry not given here, further chemistry not given here; listed as Amaranthus palmeri) [Oligo T25471]", "values": [{"measurement": "Injury rating: enhancement of the effect of WMAX (FIG. 1)", "result": "able to enhance the effect of WMAX"}]}, {"molecule": "T25457: A. palmeri OEP80 trigger dsRNA polynucleotide, SEQ ID NO: 1547 (GATTCTATAAATGGATGGTACATGGAGCGTGGTCTTTTTGGCATGGTTTC; double-stranded RNA trigger, chemistry not given here, further chemistry not given here; listed as Amaranthus palmeri) [Oligo T25457]", "values": [{"measurement": "Injury rating: enhancement of the effect of WMAX (FIG. 1)", "result": "able to enhance the effect of WMAX"}]}, {"molecule": "T25472: A. palmeri OEP80 trigger dsRNA polynucleotide, SEQ ID NO: 1562 (nucleic acid, listed as Amaranthus palmeri, double-stranded RNA trigger, chemistry not given here, further chemistry not given here) GTCATAAAAGATTTCTACAACAGCGCTCTTACGGCAAGTGGGAATACTCATGATAATATGC", "values": [{"measurement": "Injury rating: enhancement of the effect of WMAX (FIG. 1)", "result": "able to enhance the effect of WMAX"}]}, {"molecule": "T25454: A. palmeri OEP80 trigger dsRNA polynucleotide, SEQ ID NO: 1544 (nucleic acid, listed as Amaranthus palmeri, double-stranded RNA trigger, chemistry not given here, further chemistry not given here) GATACTAGGGATGGTATTAGATTGGTCTTTCAGGTAGAACCAAACCAGGAGTTTAGAGGACTGGTGTGC", "values": [{"measurement": "Injury rating: enhancement of the effect of WMAX (FIG. 1)", "result": "able to enhance the effect of WMAX"}]}]}
